{"source": "patent US8404688B2", "about": "“Nitrone compounds, process of preparation thereof, and use thereof in medicament manufacture” (Jinan University, priority 2008, dated 2013)", "key": {"[1]": {"test_system": "thrombus", "test": "Thrombolytic activity in rats (inferior vena cava ligation, dried thrombus weight)", "assay_type": "in vivo", "conditions": "TBN 3.25 mg/kg i.v.; rat; FIG. 7", "protocol": "The abdomen was then closed. Drugs were administered 2 h after ligation i.v. via the dorsal tail vein. The abdomen was reopened after […] of ligation. The thrombus was removed and dried at 50° C. for 24 h. The dried thrombus was weighted."}, "[2]": {"test_system": "cortical neuronal cells", "test": "Protection of cortical neuronal cells from H2O2-induced oxidative damage (MTT)", "assay_type": "cell-based", "conditions": "cortical neurons, FIG. 4", "protocol": "Cortical neurons (9×10^4 cells/well) were placed into 96-well cell culture plates, and were incubated at 37° C. for 24 h under 5% CO2. The medium was changed, and the cells were incubated for another 12 h. Drugs at different concentrations were added, and the cells were incubated at 37° C. for 30 min. Hydrogen peroxide were then added, and the cells were incubated for 24 h at 37° C. for 24 h under 5% CO2. A solution of 3-(4,5-dimethylthiazol-2-ly)-2,5-diphenyl-tetrazoliun bromide (MTT) was added, and the cells were incubated for another 4 h before DMSO was added. After the crystals were completely dissolved (30 min), the absorbance was read at 570 nm with a spectrophotometer (Bio-Rad Model 680, Japan). The results were expressed as the percentage of the control (saline group)."}, "[3]": {"test_system": "MCAo rat stroke model", "test": "Protection of stroke in MCAo rats (infarct area, TTC staining)", "assay_type": "in vivo", "conditions": "TBN 80 mg/kg i.p. 1 h after occlusion; 2 h ischemia, 24 h reperfusion; FIG. 6", "protocol": "Female Sprague-Dawley rats (210-240 g) were anesthetized with 10% chloral hydrate (400 mg/kg) i.p. The right common carotid artery (CCA) was carefully exposed. The occipital branch of the external carotid artery (ECA) was coagulated and the internal carotid artery (ICA) was isolated. A poly-L-lysine-coated nylon suture (0.32 mm in diameter) was inserted into the ECA and advanced retrogradely until the bifurcation of the CCA from where it was advanced a distance of approximately 18-20 mm into the ICA to occlude the MCA. A ligature was tied around the ICA, the incisions were closed, and the animal was extubated.\nTMP (50 mg/kg), TBN (80 mg/kg), PBN (65 mg/kg), Eda (62 mg/kg) and saline were administered i.p. 1 h after MAC occlusion, respectively. After 2 h of MCA occlusion, the suture was withdrawn to allow reperfusion. After 24 h of reperfusion, the animals were re-anesthetized with 10% chloral hydrate (400 mg/kg) i.p., and were then decapitated. The brain was quickly removed, rinsed with PBS, and stored in a refrigerator at −20° C. until it was frozen. The brain was sliced with a blade at every 2-mm from the frontal pole, and the slices were stained with 2,3,5-triphenyltetrazolium chloride (TTC, 0.5% in normal saline) for 30 min at 37° C. […] The area of infarction was quantified by the Osiris 4 software, and the results were expressed as the percentage of the total brain section area."}, "[4]": {"test_system": "Cortical neurons", "test": "Protection of neuronal cells from NMDA excitotoxic damage", "assay_type": "cell-based", "conditions": "drug 1-1000 μM, NMDA 100 μM, 24 h, FIG. 5", "protocol": "Cortical neurons (9×10^4 cells/well) were placed into 96-well cell culture plates, and were incubated at 37° C. for 24 h under 5% CO2. The medium was changed, and the cells were incubated for another 12 h. Drugs at different concentrations 1000 μM, 100 μM, 10 μM, 1 μM) were added, and the cells were incubated at 37° C. for 30 min. NMDA (15 μL) was then added (final concentration of NMDA is 100 μM), and the cells were incubated for 24 h at 37° C. for 24 h under 5% CO2."}, "[5]": {"test_system": "cerebral ischemia", "conditions": "rat 2-h MCA occlusion by intraluminal suture; Ley et al.; cited from earlier work"}, "[6]": {"test_system": "permanent middle cerebral occlusion", "conditions": "monkeys, Marshall et al. 2001; cited from earlier work"}, "[7]": {"test_system": "MCA occlusion", "conditions": "male Wistar rats, 2 hour MCA occlusion, given 1 hour after recirculation; at 48 hours and 7 days; Kuroda et al. 1999; cited from earlier work"}, "[8]": {"test_system": "thrombosis", "conditions": "rat arterio- and phlebo-thrombosis models; Liu and Sylvester 1990; cited from earlier work"}, "[9]": {"conditions": "intravenous injection, rat; Sheu et al. 1997; cited from earlier work"}}, "data": [{"compound": "Cc1nc(C)c(/C=[N+](\\[O-])C(C)(C)C)nc1C", "note": "[TBN, 2-[[(1,1-Dimethylethyl)oxidoimino]methyl]-3,5,6-trimethylpyrazine]", "values": [{"measurement": "thrombolytic activity (dried thrombus weight)", "setting": "[1]", "value": "significant thrombolytic activity"}, {"measurement": "effectiveness relative to Eda in protecting cortical neuronal cells from H2O2-induced damage", "setting": "[2]; H2O2, MTT", "value": "approximately 10 fold"}, {"measurement": "protection of cortical neuronal cells from H2O2-induced damage, compared with TMP and PBN", "setting": "[2]; drug 30 min before H2O2, 24 h, MTT", "value": "more effective than either TMP or PBN"}, {"measurement": "protective effect in MCAo rat stroke model (area of infarction)", "setting": "[3]", "value": "significant protective effects"}, {"measurement": "protection of neuronal cells from NMDA toxicity", "setting": "[4]", "value": "significantly protected"}]}, {"compound": "stilbazulenyl nitrone [STAZN]", "values": [{"measurement": "neurological deficits compared with vehicle controls", "setting": "[5]", "value": "improved neurological deficits"}]}, {"compound": "CC(C)(C)[N+]([O-])=Cc1ccc(S(=O)(=O)[O-])cc1S(=O)(=O)[O-].[Na+].[Na+]", "note": "[NXY-059, disodium 4-[(tert-butylimino)methyl]benzene-1,3-disulfonate N-oxide]", "values": [{"measurement": "reduction of overall amount of brain damage vs saline-treated control", "setting": "[6]", "value": "> 50", "unit": "%"}, {"measurement": "infarct volume", "setting": "[7]", "value": "significantly reduced infarct volume"}]}, {"compound": "Cc1nc(C)c(C)nc1C", "note": "[TMP, tetramethylpyrazine]", "values": [{"measurement": "thrombolytic activity", "setting": "[8]", "value": "showed thrombolytic activity"}, {"measurement": "prolongation of bleeding time", "setting": "[9]", "value": 1.5, "unit": "times"}]}]}
